Values of other authors as cited in US8686153B2, “Lenalidomide salts” (Synthon B.V., priority 2009, dated 2014).

Nc1cccc2c1CN(C1CCC(=O)NC1=O)C2=O (racemic) [Lenalidomide, 3-(4-amino-1-oxo-3H-isoindol-2-yl)piperidine-2,6-dione]
solubility at pH 4.6, 6.8 and 7.4: 0.4-0.5 mg/ml
